Source: PMC5703966, “Systemic clearance and brain distribution of carbazole-based cyanine compounds as Alzheimer’s disease drug candidates” (Scientific Reports, 2017)

What was measured:
[1] = in vitro; details: human, Caco-2
[2] = Stability in plasma, microsomes without cofactors and deactivated hepatocytes; type: in vitro ADME; details: ICR/CD-1, mouse and human; all species, 37 °C, more than 4 hours; read-out: half-life elimination (t 1/2) in plasma, microsomes and deactivated hepatocytes
Procedure: page 4: Supplemental Methods Blood-to-plasma ratio […] and incubated for an hour at 37 OC. At the end of the incubation period, plasma (CP) is separated from […] folds acetonitrile (ACN) containing berberine chloride as internal standard (IS) by LC-MS/MS (Analytical method seen below). The blood cell partitioning was calculated as follows. (1) Plasma, liver microsomes and hepatocyte binding by RED device The stability of the compounds in plasma, liver microsomes and hepatocyte were studied to ensure the reliability of the binding data. Hepatocyte was deactivated by leaving them on a bench for 2 days and going through a freeze thaw cycle thereafter. […] were inactivated. All validation compounds were incubated at 37 °C over 4 h, and in triplicate. For […] […] Natural logarithm of peak area ratios (compound peak area normalized by IS peak area) were plotted against time and half-life calculated. […] Aliquots (100 µL) were removed from each side of the insert, and analyzed after protein precipitation using 4 folds acetonitrile (ACN) containing berberine chloride as internal standard (IS) by LC-MS/MS (Analytical me thod seen below). […] In vitro stability in liver microsomes and hepatocytes Half-life (t1/2) of SLM or SLOH in liver microsomes was determined in duplicate. […]

[3] = test system: Aβ; design: method as in PMID 22086555; details: cited from earlier work
[4] = Plasma binding by RED device; type: in vitro ADME, human; details: for plasma binding: human; for f u,plasma %: human plasma, RED device, 4 h, 37 °C; on all read-outs here: tested at 0.4 µM
Procedure: Nonspecific binding in plasma (f u, plasma), microsomes (f u, mic) and hepatocyte (f u, hep) were determined using the method seen in supplemental information (Supplemental Methods). […]
All validation compounds were incubated at 37 °C over 4 h, and in triplicate. For […]
plasma stability, 10 mM DMSO solutions of SLM and SLOH were diluted to 40 µM (10% DMSO). Plasma […]
shaking water bath (60 oscillations/min approx.). The assay was started by addition of 6 µL aliquots to […]
the plasma (final DMSO incubation concentration 0.1%). […]
MS/MS. Natural logarithm of peak area ratios (compound peak area normalized by IS peak area) were plotted against time and half-life calculated. […]
placed into the sample chamber (indicated by the red ring) with 400 µL of PBS into the adjacent chamber.
The plate was sealed with a self-adhesive lid and incubated at 37 °C on an orbital shaker (1.5 g approx.) for 4 h. Aliquots (100 µL) were removed from each side of the insert, and analyzed after protein precipitation using 4 folds acetonitrile (ACN) containing berberine chloride as internal standard (IS) by LC-MS/MS (Analytical me thod seen below). The experimental procedure outlined in the Thermo Scientific RED device systems brochure was adopted in the present study . […]

**Q.** Which results are given for `COCCOCCn1c2ccccc2c2cc(/C=C/c3cc[n+](C)c4ccccc34)ccc21.[I-]` [SLM, (E)-4-(2-(9-(2-(2-methoxyethoxy)ethyl)-9H-carbazol-3-yl)-vinyl)-1-methyl-quinolin-1-iumiodide]?
**A.** Papp A→B at 1 μM [1]: 2.5 ×10⁻⁶ cm/s; efflux ratio at 1 μM [1]: 34; half-life [2]: > 24 h; reduction of Aβ fibrillogenesis in vitro [3]: reduce Aβ fibrillogenesis significantly; plasma binding [4]: > 95%; f u,plasma % [4]: 0.100 ± 0.0100%

**Q.** For `COCCOCCn1c2ccccc2c2cc(/C=C/c3cc[n+](CCO)c4ccccc34)ccc21` [SLOH, (E)-1-(2-hydroxyethyl)-4-(2-(9-(2-(2-metho-xyethoxy)-ethyl)-9H-carbazol-3-yl)vinyl) quinolin-1-ium chloride], which Papp A→B at 1 μM [1] is on record?
**A.** 2.7 ×10⁻⁶ cm/s

**Q.** What about the efflux ratio at 1 μM [1] of the same compound?
**A.** 9

**Q.** And the half-life [2]?
**A.** > 24 h

**Q.** And the “reduction of Aβ fibrillogenesis in vitro” value [3]?
**A.** reduce Aβ fibrillogenesis significantly

**Q.** What about the plasma binding [4] of the same compound?
**A.** > 95%

**Q.** And the “f u,plasma %” value [4]?
**A.** 0.170 ± 0.0400%
